In ChEMBL document CHEMBL1145592, “Pleuromutilin derivatives having a purine ring. Part 1: new compounds with promising antibacterial activity against resistant Gram-positive pathogens” (2008):
≈ marks a conversion by molar mass, not a printed value.

Tests used:
Assay type in all cases: functional
Staphylococcus aureus [1] = assay: Antibacterial activity against methicillin-susceptible Staphylococcus aureus Smith
Staphylococcus aureus [2] = assay: Antibacterial activity against methicillin-resistant Staphylococcus aureus KMP9
Enterococcus faecium = assay: Antibacterial activity against vancomycin-resistant Enterococcus faecium KU1778
Staphylococcus aureus [3] = assay: Antibacterial activity against methicillin-susceptible Staphylococcus aureus Smith infected iv dosed mouse 1 hr after inoculation
Streptococcus pneumoniae [4] = assay: Antibacterial activity against penicillin-susceptible Streptococcus pneumoniae ATCC 49619
Streptococcus pneumoniae [5] = assay: Antibacterial activity against penicillin-resistant Streptococcus pneumoniae KT2524
Streptococcus pyogenes = assay: Antibacterial activity against Streptococcus pyogenes ATCC 12344
Moraxella catarrhalis = assay: Antibacterial activity against Moraxella catarrhalis K1209
Haemophilus influenzae = assay: Antibacterial activity against Haemophilus influenzae TH13

Row | SMILES | MIC (Staphylococcus aureus [1]) | MIC (Staphylococcus aureus [2]) | MIC (Enterococcus faecium) | ED50 (Staphylococcus aureus [3]) | MIC (Streptococcus pneumoniae [4]) | MIC (Streptococcus pneumoniae [5]) | MIC (Streptococcus pyogenes) | MIC (Moraxella catarrhalis) | MIC (Haemophilus influenzae)
1 | C=C[C@]1(C)C[C@@H](OC(=O)CSC2CCN(C(=O)CCn3cnc4c(N5CCC(N)C5)nc(N)nc43)CC2)[C@]2(C)[C@H](C)CC[C@]3(CCC(=O)[C@@H]32)[C@@H](C)[C@@H]1O (stereo partly drawn) | 0.5 µg/mL (≈ 0.666 µM) | 1 µg/mL (≈ 1.33 µM) | 0.125 µg/mL (≈ 0.166 µM) | 3.05 mg/kg | 0.125 µg/mL (≈ 0.166 µM) | 0.125 µg/mL (≈ 0.166 µM) | 0.063 µg/mL (≈ 0.0839 µM) | 0.25 µg/mL (≈ 0.333 µM) | 1 µg/mL (≈ 1.33 µM)
2 | C=C[C@]1(C)C[C@@H](OC(=O)CSC2CCN(C(=O)CCn3cnc4c(N5CC[C@H](N)C5)ncnc43)CC2)[C@]2(C)[C@H](C)CC[C@]3(CCC(=O)[C@@H]32)[C@@H](C)[C@@H]1O | 0.125 µg/mL (≈ 0.17 µM) | 0.5 µg/mL (≈ 0.679 µM) | 0.125 µg/mL (≈ 0.17 µM) | 1.3 mg/kg | 0.032 µg/mL (≈ 0.0435 µM) | 0.032 µg/mL (≈ 0.0435 µM) | 0.016 µg/mL (≈ 0.0217 µM) | 0.125 µg/mL (≈ 0.17 µM) | 2 µg/mL (≈ 2.72 µM)
3 | C=C[C@]1(C)C[C@@H](OC(=O)CSC2CCN(C(=O)CCn3cnc4c(N5CC[C@@H](N)C5)ncnc43)CC2)[C@]2(C)[C@H](C)CC[C@]3(CCC(=O)[C@@H]32)[C@@H](C)[C@@H]1O | 0.063 µg/mL (≈ 0.0856 µM) | 0.25 µg/mL (≈ 0.34 µM) | 0.063 µg/mL (≈ 0.0856 µM) | 1.01 mg/kg | 0.016 µg/mL (≈ 0.0217 µM) | 0.016 µg/mL (≈ 0.0217 µM) | 0.008 µg/mL (≈ 0.0109 µM) | 0.063 µg/mL (≈ 0.0856 µM) | 1 µg/mL (≈ 1.36 µM)
4 | C=C[C@]1(C)C[C@@H](OC(=O)CSC2CCN(C(=O)CCn3cnc4c(N5CCC(NC)CC5)ncnc43)CC2)[C@]2(C)[C@H](C)CC[C@]3(CCC(=O)[C@@H]32)[C@@H](C)[C@@H]1O | 0.125 µg/mL (≈ 0.164 µM) | 0.25 µg/mL (≈ 0.327 µM) | 0.063 µg/mL (≈ 0.0825 µM) | 2.21 mg/kg | 0.063 µg/mL (≈ 0.0825 µM) | 0.063 µg/mL (≈ 0.0825 µM) | 0.032 µg/mL (≈ 0.0419 µM) | 0.125 µg/mL (≈ 0.164 µM) | 2 µg/mL (≈ 2.62 µM)
5 | C=C[C@]1(C)C[C@@H](OC(=O)CSC2CCN(C(=O)CCn3cnc4c(N5CCC(N(C)C)C5)nc(N)nc43)CC2)[C@]2(C)[C@H](C)CC[C@]3(CCC(=O)[C@@H]32)[C@@H](C)[C@@H]1O (stereo partly drawn) | 0.25 µg/mL (≈ 0.321 µM) | 0.25 µg/mL (≈ 0.321 µM) | 0.125 µg/mL (≈ 0.16 µM) | 3 mg/kg | 0.063 µg/mL (≈ 0.0809 µM) | 0.063 µg/mL (≈ 0.0809 µM) | 0.063 µg/mL (≈ 0.0809 µM) | 0.125 µg/mL (≈ 0.16 µM) | 2 µg/mL (≈ 2.57 µM)
6 | C=C[C@]1(C)C[C@@H](OC(=O)CSC2CCN(C(=O)CCn3cnc4c(N5CCC(CN)C5)nc(N)nc43)CC2)[C@]2(C)[C@H](C)CC[C@]3(CCC(=O)[C@@H]32)[C@@H](C)[C@@H]1O (stereo partly drawn) | 0.5 µg/mL (≈ 0.654 µM) | 2 µg/mL (≈ 2.61 µM) | 0.5 µg/mL (≈ 0.654 µM) | 2.84 mg/kg | 0.063 µg/mL (≈ 0.0823 µM) | 0.125 µg/mL (≈ 0.163 µM) | 0.032 µg/mL (≈ 0.0418 µM) | 0.125 µg/mL (≈ 0.163 µM) | 4 µg/mL (≈ 5.23 µM)
7 | C=C[C@]1(C)C[C@@H](OC(=O)CSC2CCN(C(=O)CCn3cnc4c(N5CCC(CNC)C5)ncnc43)CC2)[C@]2(C)[C@H](C)CC[C@]3(CCC(=O)[C@@H]32)[C@@H](C)[C@@H]1O (stereo partly drawn) | 0.25 µg/mL (≈ 0.327 µM) | 0.5 µg/mL (≈ 0.654 µM) | 0.125 µg/mL (≈ 0.164 µM) | 0.76 mg/kg | 0.063 µg/mL (≈ 0.0825 µM) | 0.063 µg/mL (≈ 0.0825 µM) | 0.016 µg/mL (≈ 0.0209 µM) | 0.125 µg/mL (≈ 0.164 µM) | 2 µg/mL (≈ 2.62 µM)
8 | C=C[C@]1(C)C[C@@H](OC(=O)CSC2CCN(C(=O)CCn3cnc4c(N5CC(NC)C5)nc(N)nc43)CC2)[C@]2(C)[C@H](C)CC[C@]3(CCC(=O)[C@@H]32)[C@@H](C)[C@@H]1O | 0.5 µg/mL (≈ 0.666 µM) | 1 µg/mL (≈ 1.33 µM) | 0.5 µg/mL (≈ 0.666 µM) | 3.97 mg/kg | 0.063 µg/mL (≈ 0.0839 µM) | 0.125 µg/mL (≈ 0.166 µM) | 0.125 µg/mL (≈ 0.166 µM) | 0.25 µg/mL (≈ 0.333 µM) | 2 µg/mL (≈ 2.66 µM)
9 | CN[C@H](CC(C)C)C(=O)N[C@H]1C(=O)N[C@@H](CC(N)=O)C(=O)N[C@H]2C(=O)N[C@H]3C(=O)N[C@H](C(=O)N[C@H](C(=O)O)c4cc(O)cc(O)c4-c4cc3ccc4O)[C@H](O)c3ccc(c(Cl)c3)Oc3cc2cc(c3O[C@@H]2O[C@H](CO)[C@@H](O)[C@H](O)[C@H]2O[C@H]2C[C@](C)(N)[C@H](O)[C@H](C)O2)Oc2ccc(cc2Cl)[C@H]1O [VANCOMYCIN] |  |  | > 128 µg/mL | 0.88 mg/kg | 0.25 µg/mL (≈ 0.173 µM) | 0.5 µg/mL (≈ 0.345 µM) |  | 64 µg/mL (≈ 44.2 µM) | > 128 µg/mL
